The subject of test [1] is enoxaparin. Put plainly: FXa amidolytic assay (Example 10), enoxaparin. To be noted: read-out: Enox FXa EC50; enoxaparin 0.1 ug/ml; human antithrombin, bovine Factor Xa.
Experimental: (§1) Two μl of test agent are added (range between 0.01 and 23 ug/ml) and incubated for 5 minutes at 23° C. Bovine Factor Xa was added to a final concentration of 0.636 nkat/mL and incubated for a further 10 minutes at 23° C.
Test [2] relates to Unfractionated heparin. As to the kind of experiment: aPTT clotting assay, UFH 0.4 U/mL in plasma (Example 10). The test is classed as biochemical. To be noted: unfractionated heparin 0.4 U/mL in plasma; aPTT clotting. How it is done: aPTT clotting Assay: Unfractionated heparin was mixed with plasma at a final concentration of 0.4 U/mL (or concentration which increases aPTT time to between 120 and 300 seconds). […] The ACL Elite Hemostasis analyzer (Beckman Coulter™) was used to add aPTT reagent (HemosIL SynthASil) to supplemented plasma. Clotting was initiated by addition of CaCl2 and time to clot was recorded.

Test [3] deals with fondaparinux. Put plainly: FXa amidolytic assay (Example 10), fondaparinux. To be noted: read-out: Fondap FXa EC50; fondaparinux 0.02 μg/mL; human antithrombin, bovine Factor Xa.
Experimental: as §1
Test [4] has as its system tinzaparin. As to the kind of experiment: FXa amidolytic assay (Example 10), tinzaparin. To be noted: read-out: Tinzap FXa EC50; tinzaparin 0.1 ug/ml; human antithrombin, bovine Factor Xa.
Experimental: as §1

For `COc1ccc(NC(=O)[C@H](CCCCN)NC(=O)c2cc(NC(=O)[C@H](C)NC(=O)c3cc(NC(=O)[C@H](CCCCN)NC(=O)c4cc(NC(=O)[C@@H](N)CCCCN)ccc4OC)ccc3OC)ccc2OC)cc1C(N)=O` [Compound 201], the EC50 in test [1] stood at 974 nM; in test [2] it was 6000 nM.
On the same counts, the results for `COc1ccc(NC(=O)[C@H](CCCCN)NC(=O)c2cc(NC(=O)[C@H](CCCCN)NC(=O)c3cc(NC(=O)[C@H](C)NC(=O)c4cc(NC(=O)[C@@H](N)CCCCN)ccc4OC)ccc3OC)ccc2OC)cc1C(N)=O` [Compound 202] are 398 nM and 4550 nM.
`COc1ccc(NC(=O)[C@H](CCCNC(=N)N)NC(=O)c2cc(NC(=O)[C@H](CCCCN)NC(=O)c3cc(NC(=O)[C@H](CCCCN)NC(=O)c4cc(NC(=O)[C@@H](N)CCCCN)ccc4OC)ccc3OC)ccc2OC)cc1C(N)=O` [Compound 203]: the EC50 is 283 nM in test [1] and 2990 nM in test [2].
On the same counts, the results for `COc1ccc(NC(=O)[C@H](CCCCN)NC(=O)c2cc(NC(=O)[C@H](CCCNC(=N)N)NC(=O)c3cc(NC(=O)[C@H](CCCCN)NC(=O)c4cc(NC(=O)[C@@H](N)CCCCN)ccc4OC)ccc3OC)ccc2OC)cc1C(N)=O` [Compound 204] are 239 nM and 3020 nM.
Consider `COc1ccc(NC(=O)[C@H](CCCCN)NC(=O)c2cc(NC(=O)[C@H](CCCCN)NC(=O)c3cc(NC(=O)[C@H](CCCNC(=N)N)NC(=O)c4cc(NC(=O)[C@@H](N)CCCCN)ccc4OC)ccc3OC)ccc2OC)cc1C(N)=O` [Compound 205], for which the EC50 in test [1] was 202 nM.
On to `COc1ccc(NC(=O)[C@H](CCCCN)NC(=O)c2cc(NC(=O)[C@H](CCCCN)NC(=O)c3cc(NC(=O)[C@H](CCCCN)NC(=O)c4cc(NC(=O)[C@@H](N)CCCNC(=N)N)ccc4OC)ccc3OC)ccc2OC)cc1C(N)=O` [Compound 206], for which the EC50 in test [1] is 148 nM; in test [2] it was 1960 nM.
Take `COc1ccc(NC(=O)[C@@H](CCCNC(=N)N)NC(=O)c2cc(NC(=O)[C@@H](CCCNC(=N)N)NC(=O)c3cc(NC(=O)[C@@H](CCCNC(=N)N)NC(=O)c4cc(NC(=O)[C@H](N)CCCNC(N)=O)ccc4OC)ccc3OC)ccc2OC)cc1C(N)=O` [Compound 207]: in test [1], the EC50 is 39 nM.
For `COc1ccc(C(N)=O)cc1NC(=O)[C@@H](CCCNC(=N)N)NC(=O)c1cc(NC(=O)[C@@H](CCCNC(=N)N)NC(=O)c2cc(NC(=O)[C@@H](CCCNC(=N)N)NC(=O)c3cc(NC(=O)[C@H](N)CCCNC(=N)N)ccc3OC)ccc2OC)ccc1OC` [Compound 210], the EC50 was 82 nM in test [1], 2550 nM in test [2] and 1400 nM in test [3].
In the case of `COc1ccc(NC(=O)[C@@H](CCCNC(=N)N)NC(=O)c2cc(NC(=O)[C@@H](CCCNC(=N)N)NC(=O)c3cccc(NC(=O)[C@@H](CCCNC(=N)N)NC(=O)c4cc(NC(=O)[C@H](N)CCCNC(=N)N)ccc4OC)n3)ccc2OC)cc1C(N)=O` [Compound 211], the EC50 was 137 nM in test [1], 5900 nM in test [2] and 2870 nM in test [3].
On the same counts, the results for `COc1ccc(NC(=O)[C@@H](CCCNC(=N)N)NC(=O)c2cc(NC(=O)[C@@H](CCCNC(=N)N)NC(=O)c3cc(NC(=O)[C@@H](CCCNC(=N)N)NC(=O)c4cccc(NC(=O)[C@H](N)CCCNC(=N)N)c4)ccc3OC)ccc2OC)cc1C(N)=O` [Compound 212] are 73 nM, 883 nM and 259 nM.
In the case of `COc1ccc(NC(=O)[C@H](CCCCN)NC(=O)c2cc(NC(=O)[C@H](CCCCN)NC(=O)c3cc(NC(=O)[C@@H](N)CCCCN)ccc3OC)ccc2OC)cc1C(=O)N[C@@H](CCCCN)C(=O)Nc1cccc(C(N)=O)c1` [Compound 213], the values for the EC50 in test [1], in test [2] and in test [3] were 78 nM, 893 nM and 354 nM, respectively.
On to `COc1ccc(NC(=O)[C@H](CCCCN)NC(=O)c2cccc(NC(=O)[C@H](CCCCN)NC(=O)c3cc(NC(=O)[C@H](CCCCN)NC(=O)c4cc(NC(=O)[C@@H](N)CCCCN)ccc4OC)ccc3OC)c2)cc1C(N)=O` [Compound 214], for which the EC50 in test [1] came out at 87 nM; in test [2], 1910 nM; in test [3], 432 nM.
Turning to `COc1ccc(NC(=O)[C@H](CCCCN)NC(=O)c2cc(NC(=O)[C@H](CCCCN)NC(=O)c3cccc(NC(=O)[C@H](CCCCN)NC(=O)c4cc(NC(=O)[C@@H](N)CCCCN)ccc4OC)c3)ccc2OC)cc1C(N)=O` [Compound 215], the EC50 worked out at 73 nM in test [1], 2850 nM in test [2] and 288 nM in test [3].
For `COc1ccc(NC(=O)[C@H](CCCCN)NC(=O)c2cc(NC(=O)[C@H](CCCCN)NC(=O)c3cc(NC(=O)[C@H](CCCCN)NC(=O)c4cccc(NC(=O)[C@@H](N)CCCCN)c4)ccc3OC)ccc2OC)cc1C(N)=O` [Compound 216], the EC50 in test [4] worked out at 191 nM; in test [1], 347 nM; in test [2] it was 1220 nM; in test [3], 7870 nM.
For `CCOc1ccc(NC(=O)[C@@H](CCCNC(=N)N)NC(=O)c2cc(NC(=O)[C@@H](CCCNC(=N)N)NC(=O)c3cc(NC(=O)[C@@H](CCCNC(=N)N)NC(=O)c4cc(NC(=O)[C@H](N)CCCNC(=N)N)ccc4OC)ccc3OC)ccc2OC)cc1C(N)=O` [Compound 217], the EC50 in test [1] amounted to 74 nM; in test [2], 1120 nM; in test [3] it was 252 nM.
Turning to `CCOc1ccc(NC(=O)[C@@H](CCCNC(=N)N)NC(=O)c2cc(NC(=O)[C@H](N)CCCNC(=N)N)ccc2OC)cc1C(=O)N[C@H](CCCNC(=N)N)C(=O)Nc1ccc(OC)c(C(=O)N[C@H](CCCNC(=N)N)C(=O)Nc2ccc(OC)c(C(N)=O)c2)c1` [Compound 218], the EC50 was 74 nM in test [1], 853 nM in test [2] and 176 nM in test [3].
Regarding `COc1cc(OC)c(C(=O)N[C@H]2CC[C@H](NC(=O)c3cc(C(=O)N[C@H]4CC[C@H](NC(=O)c5cc(C(=O)NCCN(C)C)c(OC)cc5OC)CC4)c(OCCCCCNC(=N)N)cc3OCCCCCNC(=N)N)CC2)cc1C(=O)NCCN(C)C` [Compound 220], the values for the EC50 in test [1] and in test [2] were 125 nM and 5450 nM, respectively.
As to `COc1cc(OC)c(C(=O)N[C@H]2CC[C@@H](NC(=O)c3cc(C(=O)NCCN(C)C)c(OCCNC(=N)N)cc3OCCNC(=N)N)CC2)cc1C(=O)N[C@H]1CC[C@@H](NC(=O)c2cc(C(=O)NCCN(C)C)c(OCCNC(=N)N)cc2OCCNC(=N)N)CC1` [Compound 225], the EC50 was determined as 359 nM in test [4], 1060 nM in test [1] and 12100 nM in test [2].
With `COc1cc(OC)c(C(=O)N[C@H]2CC[C@H](NC(=O)c3cc(C(=O)NCCN(C)C)c(OCCNC(=N)N)cc3OCCNC(=N)N)CC2)cc1C(=O)N[C@H]1CC[C@H](NC(=O)c2cc(C(=O)NCCN(C)C)c(OCCNC(=N)N)cc2OCCNC(=N)N)CC1` [Compound 226], the values for the EC50 in test [4], in test [1] and in test [2] were 343 nM, 852 nM and 12900 nM, respectively.
Consider `CN(C)CCNC(=O)c1cc(C(=O)NC2CCC(NC(=O)c3cc(C(=O)NCCN(C)C)c(OCCCCCN)cc3OCCCCCN)CC2)c(OCCCCCN)cc1OCCCCCN` (centres unmarked) [Compound 227], for which, in test [2], the EC50 was more than 10000 nM.
`COc1ccc(NC(=O)[C@@H](CCCNC(=N)N)NC(=O)CCCCNC(=N)N)cc1C(=O)N[C@H](CCCNC(=N)N)C(=O)Nc1ccc(OC)c(C(=O)N[C@H](CCCNC(=N)N)C(=O)Nc2ccc(OC)c(C(=O)N[C@H](CCCNC(=N)N)C(=O)Nc3ccc(OCCNC(=N)N)c(C(N)=O)c3)c2)c1` [Compound 291]: the results for the EC50 in test [1], in test [2] and in test [3] were 47 nM, 2480 nM and 1180 nM, respectively.
Consider `COc1ccc(NC(=O)[C@H](CCCCN)NC(=O)c2cc(NC(=O)[C@H](CCCCN)NC(=O)c3cc(NC(=O)[C@H](CCCCN)NC(=O)c4cc(NC(=O)[C@H](CCCCN)NC(=N)N)ccc4OC)ccc3OC)ccc2OC)cc1C(N)=O` [Compound 292], for which the EC50 in test [1] was found to be 450 nM; in test [3], 4790 nM.
For the compound `COc1ccc(NC(=O)[C@@H](CCCCN)NC(=O)c2c(OC)ccc(NC(=O)[C@@H](CCCCN)NC(=O)c3c(OC)ccc(NC(=O)[C@@H](CCCCN)NC(=O)c4c(OC)ccc(NC(=O)[C@H](N)CCCCN)c4OC)c3OC)c2OC)c(OC)c1C(N)=O` [Compound 293], the EC50 in test [1] and in test [3] was more than 10000 nM in each case.
Consider `CCOC(=O)CC(=O)N[C@@H](CCCCN)C(=O)Nc1ccc(OC)c(C(=O)N[C@@H](CCCCN)C(=O)Nc2ccc(OC)c(C(=O)N[C@@H](CCCCN)C(=O)Nc3ccc(OC)c(C(=O)N[C@@H](CCCCN)C(=O)Nc4ccc(OC)c(C(N)=O)c4)c3)c2)c1` [Compound 337], for which the EC50 in test [4] came to 174 nM; in test [1], 225 nM; in test [3], 1830 nM.
For the compound `COC(=O)CCC(=O)N[C@@H](CCCCN)C(=O)Nc1ccc(OC)c(C(=O)N[C@@H](CCCCN)C(=O)Nc2ccc(OC)c(C(=O)N[C@@H](CCCCN)C(=O)Nc3ccc(OC)c(C(=O)N[C@@H](CCCCN)C(=O)Nc4ccc(OC)c(C(N)=O)c4)c3)c2)c1` [Compound 338], the EC50 was 176 nM in test [4], 241 nM in test [1] and 2750 nM in test [3].
On the same counts, the results for `COC(=O)CCCC(=O)N[C@@H](CCCCN)C(=O)Nc1ccc(OC)c(C(=O)N[C@@H](CCCCN)C(=O)Nc2ccc(OC)c(C(=O)N[C@@H](CCCCN)C(=O)Nc3ccc(OC)c(C(=O)N[C@@H](CCCCN)C(=O)Nc4ccc(OC)c(C(N)=O)c4)c3)c2)c1` [Compound 341] are 138 nM, 198 nM and 1580 nM.
Take `COc1ccc(NC(=O)[C@H](CCCCN)NC(=O)c2cc(NC(=O)[C@H](CCCCN)NC(=O)c3cc(NC(=O)[C@H](CCCCN)NC(=O)c4cc(NC(=O)[C@H](CCCCN)NC(=O)c5ccccc5C(=O)O)ccc4OC)ccc3OC)ccc2OC)cc1C(N)=O` [Compound 343]: the results for the EC50 in test [4], in test [1] and in test [3] were 201 nM, 235 nM and 932 nM, respectively.

The record behind these values is patent publication US20110178104A1, “Anti-Heparin Compounds” (POLYMEDIX INC., priority 2010, published 2011).
